Calls of active or inactive are those of the source. The calls are words filed in the database; no cut-off is given here.
Experiments:
SW1990 [1] = experiment: Induction of apoptosis in human SW1990 cells assessed as viable cells at 1 uM incubated for 6 days by Annexin V/PI staining based flow cytometry (reference value: 92.93 %); format: functional; conditions: SW1990, 144 h, time 6 day, read-out: Activity
SW1990 [2] = experiment: Induction of cell cycle arrest at S phase in human SW1990 cells at 0.5 uM incubated for 6 days by PI staining based flow cytometry (reference value: 21.20 %); format: functional; conditions: time 6 day
SW1990 [3] = experiment: Induction of apoptosis in human SW1990 cells assessed as necrotic cells at 2 uM incubated for 6 days by Annexin V/PI staining based flow cytometry (reference value: 0.50 %); format: functional; conditions: time 6 day
SW1990 [4] = experiment: Antitumor activity in human SW1990 cells assessed as decrease in CD133 level at 0.5 to 2 uM by immunofluorescence based analysis; format: functional, cell-based; conditions: dose 0.5-2 µM
SW1990 [5] = experiment: Induction of apoptosis in human SW1990 cells assessed as late apoptotic cells at 2 uM incubated for 6 days by Annexin V/PI staining based flow cytometry (reference value: 2.01 %); format: functional; conditions: time 6 day
[6] = biological target: T1, Serine/threonine-protein kinase DCLK1 (Homo sapiens) (UniProt O15075); experiment: Inhibition of DCLK1 (unknown origin) at 200 nM preincubated for 10 mins followed by substrate/ATP addition measured after 60 mins by mobility shift assay relative to control; conditions: time 70.0 min
T1 sequence (whole entry): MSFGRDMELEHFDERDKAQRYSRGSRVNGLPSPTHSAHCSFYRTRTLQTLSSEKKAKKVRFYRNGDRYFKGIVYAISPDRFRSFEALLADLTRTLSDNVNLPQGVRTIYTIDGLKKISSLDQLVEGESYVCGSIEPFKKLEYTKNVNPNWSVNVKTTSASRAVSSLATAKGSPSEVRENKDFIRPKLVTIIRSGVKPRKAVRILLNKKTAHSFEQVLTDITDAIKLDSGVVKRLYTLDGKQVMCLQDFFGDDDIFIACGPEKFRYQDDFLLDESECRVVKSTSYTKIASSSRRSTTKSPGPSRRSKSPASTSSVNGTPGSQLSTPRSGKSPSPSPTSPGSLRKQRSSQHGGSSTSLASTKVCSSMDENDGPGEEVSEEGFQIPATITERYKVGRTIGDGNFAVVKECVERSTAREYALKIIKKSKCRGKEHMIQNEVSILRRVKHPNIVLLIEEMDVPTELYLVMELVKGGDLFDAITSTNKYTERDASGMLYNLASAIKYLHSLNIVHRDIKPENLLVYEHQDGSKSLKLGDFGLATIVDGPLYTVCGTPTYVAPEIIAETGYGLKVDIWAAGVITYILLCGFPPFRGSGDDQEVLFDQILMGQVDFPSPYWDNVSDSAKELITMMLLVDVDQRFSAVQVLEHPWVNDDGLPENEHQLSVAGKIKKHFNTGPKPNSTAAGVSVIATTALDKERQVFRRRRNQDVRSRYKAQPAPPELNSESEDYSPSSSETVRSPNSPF

SW1990 [7] = experiment: Antiproliferative activity against human SW1990 cells assessed as inhibition cell proliferation incubated for 6 days by MTT assay; format: functional, cell-based; conditions: SW1990, 144 h
SW1990 [8] = experiment: Induction of apoptosis in human SW1990 cells assessed as early apoptotic cells at 2 uM incubated for 6 days by Annexin V/PI staining based flow cytometry (reference value: 4.55 %); format: functional; conditions: time 6 day
SW1990 [9] = experiment: Inhibition of colony formation of human SW1990 cells at 2 uM incubated for 6 days by crystal violet staining based analysis; format: functional, cell-based; conditions: time 6.0 day
SW1990 [10] = experiment: Induction of apoptosis in human SW1990 cells assessed as late apoptotic cells at 1 uM incubated for 6 days by Annexin V/PI staining based flow cytometry (reference value: 2.01 %); format: functional; conditions: time 6 day
[11] = Metabolic stability in mouse liver microsomes assessed as half life at 1 uM preincubated for 10 mins followed by NADPH measured for 60 mins by LC-MS/MS analysis; format: ADME, Microsome; conditions: time 70 min
SW1990 [12] = experiment: Inhibition of cell migration in human SW1990 cells at 0.5 to 2 uM by transwell assay; format: functional, cell-based; conditions: dose 0.5-2 µM
[13] = Metabolic stability in mouse liver microsomes assessed as intrinsic clearance at 1 uM preincubated for 10 mins followed by NADPH measured for 60 mins by LC-MS/MS analysis; format: ADME, Microsome; conditions: time 70 min, read-out: CLH
SW1990 [14] = experiment: Antitumor activity against human SW1990 cells xenografted in BALB/c nude mouse model assessed as tumor growth inhibition at 60 mg/kg, ip for 21 days consecutively relative to control; format: functional; conditions: SW1990, 504 h, time 21 day, read-out: TGI
SW1990 [15] = experiment: Antitumor activity against human SW1990 cells xenografted in BALB/c nude mouse model assessed as change in nuclear chromatin marginalization treated intraperitoneally for 21 days consecutively by H and E staining based analysis; format: functional; conditions: dose 30-60 mg/kg, route ip, time 21.0 day
SW1990 [16] = experiment: Downregulation of N-cadherin level in human SW1990 cells at 0.5 to 2 uM by Western blot analysis; format: functional, cell-based; conditions: dose 0.5-2 µM
SW1990 [17] = experiment: Potency index, ratio of DCLK1-IN-1 IC50 to test compound IC50 for human SW1990 cells assessed as inhibition cell proliferation incubated for 6 days by MTT assay; format: functional; conditions: time 6 day
SW1990 [18] = experiment: Induction of apoptosis in human SW1990 cells assessed as early apoptotic cells at 1 uM incubated for 6 days by Annexin V/PI staining based flow cytometry (reference value: 4.55 %); format: functional; conditions: time 6 day
SW1990 [19] = experiment: Antitumor activity against human SW1990 cells xenografted in BALB/c nude mouse model assessed as change in agglutination treated intraperitoneally for 21 days consecutively by H and E staining based analysis; format: functional; conditions: dose 30-60 mg/kg, route ip, time 21.0 day
CAKI-1 = experiment: Antiproliferative activity against human CAKI-1 cells assessed as inhibition cell proliferation incubated for 6 days by MTT assay; format: functional, cell-based; conditions: CAKI-1, 144 h
SW1990 [20] = experiment: Induction of cell cycle arrest at G2/M phase in human SW1990 cells at 1 uM incubated for 6 days by PI staining based flow cytometry (reference value: 29.15 %); format: functional; conditions: time 6 day
SW1990 [21] = experiment: Downregulation of Snail level in human SW1990 cells at 0.5 to 2 uM by Western blot analysis; format: functional, cell-based; conditions: dose 0.5-2 µM
SW1990 [22] = experiment: Induction of apoptosis in human SW1990 cells assessed as late apoptotic cells at 0.5 uM incubated for 6 days by Annexin V/PI staining based flow cytometry (reference value: 2.01 %); format: functional; conditions: time 6 day
SW1990 [23] = experiment: Induction of cell cycle arrest at G0/G1 phase in human SW1990 cells at 0.5 uM incubated for 6 days by PI staining based flow cytometry (reference value: 49.65 %); format: functional; conditions: time 6 day
SW1990 [24] = experiment: Antitumor activity against human SW1990 cells xenografted in BALB/c nude mouse model assessed as decrease in CD133 level at 30 to 60 mg/kg, ip for 21 days consecutively by IHC analysis; format: functional, organism-based; conditions: dose 30-60 mg/kg, time 21.0 day
SW1990 [25] = experiment: Induction of apoptosis in human SW1990 cells assessed as viable cells at 2 uM incubated for 6 days by Annexin V/PI staining based flow cytometry (reference value: 92.93 %); format: functional; conditions: SW1990, 144 h, time 6 day, read-out: Activity
HCT-116 = experiment: Antiproliferative activity against human HCT-116 cells assessed as inhibition cell proliferation incubated for 6 days by MTT assay; format: functional, cell-based; conditions: HCT-116, 144 h

COc1cc(N2CCN(C)CC2)ccc1Nc1nc(Nc2ccccc2S(=O)(=O)C(C)C)c2nc[nH]c2n1
viability at 1 µM (SW1990 [1]): 65.3%
Activity (SW1990 [2]): 19.66%
Activity (SW1990 [3]): 5.86%
Activity (SW1990 [4]): Active
Activity (SW1990 [5]): 11.39%
inhibition [6]: 29.8%
IC50 (SW1990 [7]): 600 nM
Activity (SW1990 [8]): 21.76%
inhibition (SW1990 [9]): Active
Activity (SW1990 [10]): 7.06%
half-life at 1 µM [11]: 45.9 min
inhibition (SW1990 [12]): Active
CLint scaled at 1 µM [13]: 120 mL/min/kg
microsomal CLint at 1 µM [13]: 30.2 µL/min/mg
inhibition in vivo at 60 mg/kg (SW1990 [14]): 68.6%
Activity (SW1990 [15]): Dose-Dependent Effect
Activity (SW1990 [16]): Active
Ratio IC50 (SW1990 [17]): 22
Activity (SW1990 [18]): 19.46%
Activity (SW1990 [19]): Dose-Dependent Effect
IC50 (CAKI-1): 10100 nM
Activity (SW1990 [20]): 23.47%
Activity (SW1990 [21]): Active
Activity (SW1990 [22]): 6.77%
Activity (SW1990 [23]): 52.79%
Activity (SW1990 [24]): Active
viability at 2 µM (SW1990 [25]): 61%
IC50 (HCT-116): 3000 nM

From ChEMBL document CHEMBL5634144, “Design, synthesis and biological evaluation of novel DCLK1 inhibitor containing purine skeleton for the treatment of pancreatic cancer” (Eur J Med Chem, 2023)
